Calls of active or inactive are those of the source. How the calls were made is not given here.
Tested on: GENE-TOX genotoxicity assays, various organisms and cells
Assay: GENE-TOX mutagenicity studies
Conditions: for call: Assay Type: In vivo carcinogenicity studies
[1] = Species/Cell Type: Salmonella typhimurium (one or more of the five standard strains: TA98, TA100, TA1535, TA1537, and TA1538), Assay Type: Histidine reverse gene mutation, Ames assay, Assay Code: SALT, Evaluation Type: Evaluation A (Pre-1980)
[2] = Species/Cell Type: Drosophila melanogaster, Assay Type: Sex-linked recessive lethal gene mutation, Assay Code: SRL+, Evaluation Type: Evaluation A (Pre-1980)
[3] = Species/Cell Type: Salmonella typhimurium (one or more of the five standard strains: TA98, TA100, TA1535, TA1537, and TA1538), Assay Type: Histidine reverse gene mutation, Ames assay, Assay Code: SAL+*, Activation: With metabolic activation, Evaluation Type: Evaluation A (Pre-1980)
[4] = Species/Cell Type: Bacillus subtilis (H17 vs M45), Assay Type: Rec-assay, spot test, DNA effects (bacterial DNA repair), Assay Code: REW+, Evaluation Type: Evaluation A (Pre-1980)
[5] = Species/Cell Type: Escherichia coli polA (W3119 vs P3478), Assay Type: Rec-assay, DNA effects (bacterial DNA repair), Assay Code: RE1+, Evaluation Type: Evaluation A (Pre-1980)
[6] = Species/Cell Type: Human lymphocytes or leukocytes, Assay Type: Chromosome aberrations in vitro, Assay Code: CY7+, Evaluation Type: Evaluation A (Pre-1980)
[7] = Species/Cell Type: Human, Assay Type: Sister-chromatid exchange (SCE) in vitro, Assay Code: SC1+D, Dose Response: With dose response, Evaluation Type: Evaluation B (Post-1980)
[8] = Species/Cell Type: Nonhuman, Assay Code: CCGT, Evaluation Type: Evaluation A (Pre-1980)
[9] = Species/Cell Type: Saccharomyces cerevisiae, Assay Type: Mitotic recombination or gene conversion, Assay Code: YEC+, Evaluation Type: Evaluation A (Pre-1980)
[10] = Species/Cell Type: Saccharomyces cerevisiae, Assay Type: Mitotic recombination or gene conversion, Assay Code: YEH+, Evaluation Type: Evaluation A (Pre-1980)
[11] = Species/Cell Type: Vicia faba, Assay Type: Chromosome aberrations, Assay Code: VIC+, Evaluation Type: Evaluation A (Pre-1980)
[12] = Species/Cell Type: Salmonella typhimurium (one or more of the five standard strains: TA98, TA100, TA1535, TA1537, and TA1538), Assay Type: Histidine reverse gene mutation, Ames assay, Assay Code: SAL+, Evaluation Type: Evaluation A (Pre-1980)
[13] = Species/Cell Type: Mammalian polychromatic erythrocytes, Assay Type: Micronucleus test, chromosome aberrations, Assay Code: MNT+, Evaluation Type: Evaluation B (Post-1980)
[14] = Species/Cell Type: Nonhuman, Assay Type: Sister-chromatid exchange (SCE) in vitro, Assay Code: SC2+, Evaluation Type: Evaluation B (Post-1980)
[15] = Species/Cell Type: Arabidopsis species, Assay Type: Gene mutation, Assay Code: ARM+, Evaluation Type: Evaluation A (Pre-1980)

O=c1c(=O)c2c3ccccc3cc3ccc4cccc1c4c32 was tested, and the mutagenic call (Species/Cell Type: Chinese hamster lung (V79) cells, Assay Type: Forward gene mutation at the HPRT or ouabain locus, Assay Code: V79-, Evaluation Type: Evaluation A (Pre-1980)) was “inactive; negative” and the mutagenic call [1] was “no conclusion”.

With OCc1c2ccccc2c2ccc3cccc4ccc1c2c43 the mutagenic call (Species/Cell Type: Chinese hamster lung (V79) cells, Assay Type: Forward gene mutation at the HPRT or ouabain locus, Assay Code: V79+*, Activation: With metabolic activation, Evaluation Type: Evaluation A (Pre-1980)) was “active; positive”, the mutagenic call [2] was “active; positive” and the call (Species/Cell Type: Nonhuman, Assay Code: CCG+, Evaluation Type: Evaluation A (Pre-1980)) was “active; positive”. The mutagenic call [3] was “active; positive”.

With C/C=C(/C)C(=O)O[C@@H]1CCN2CC=C(COC(=O)[C@@](O)([C@H](C)O)C(C)(C)O)[C@H]12 the mutagenic call [2] was “active; positive”.

O=C(O)COc1ccc(Cl)cc1Cl was tested, and the mutagenic call (Species/Cell Type: Allium cepa, Assay Type: Chromosome aberrations, Assay Code: ALC+, Evaluation Type: Evaluation A (Pre-1980)) was “active; positive”, the mutagenic call [4] was “active; positive” and the mutagenic call (Species/Cell Type: Chinese hamster lung (V79) cells, Assay Type: Forward gene mutation at the HPRT or ouabain locus, Assay Code: V79+, Evaluation Type: Evaluation A (Pre-1980)) was “active; positive”. The mutagenic call (Species/Cell Type: Drosophila melanogaster, Assay Type: Aneuploidy, sex chromosome gain, chromosome aberrations, Assay Code: DAG-M-F, Evaluation Type: Evaluation A (Pre-1980)) was “inactive; negative”, the mutagenic call (Species/Cell Type: Drosophila melanogaster, Assay Type: Aneuploidy, whole sex chromosome loss, chromosome aberrations, Assay Code: DAC-M-F, Evaluation Type: Evaluation A (Pre-1980)) was “inactive; negative” and the mutagenic call (Species/Cell Type: Drosophila melanogaster, Assay Type: Sex-linked recessive lethal gene mutation, Assay Code: SRL-, Evaluation Type: Evaluation A (Pre-1980)) was “inactive; negative”. For the same compound, the mutagenic call (Species/Cell Type: Escherichia coli WP2 UVRA, Assay Type: Tryptophan reverse gene mutation, Assay Code: WPU-*, Activation: With metabolic activation, Evaluation Type: Evaluation A (Pre-1980)) was “inactive; negative”, the mutagenic call [5] was “active; positive” and the mutagenic call (Species/Cell Type: Human diploid fibroblasts, Assay Type: Unscheduled DNA synthesis (UDS) in vitro, DNA effects, Assay Code: UDH-, Evaluation Type: Evaluation A (Pre-1980)) was “inactive; negative”. For the same compound, the mutagenic call [6] was “active; positive”, the mutagenic call (Species/Cell Type: Human lymphocytes, Assay Type: Sister-chromatid exchange (SCE) in vitro, Assay Code: SCL+D, Dose Response: With dose response, Evaluation Type: Evaluation B (Post-1980)) was “active; positive” and the mutagenic call [7] was “active; positive”. The mutagenic call (Species/Cell Type: Mammalian polychromatic erythrocytes, Assay Type: Micronucleus test, chromosome aberrations, Assay Code: MNTT, Evaluation Type: Evaluation A (Pre-1980)) was “no conclusion”, the mutagenic call (Species/Cell Type: Nonhuman bone marrow, Assay Type: Chromosome aberrations, in vivo, Assay Code: CY#+, Evaluation Type: Evaluation A (Pre-1980)) was “active; positive” and the call [8] was “no conclusion”. The mutagenic call [9] was “active; positive”, the mutagenic call [10] was “active; positive” and the mutagenic call (Species/Cell Type: Saccharomyces cerevisiae, Assay Type: Mitotic recombination or gene conversion, Assay Code: YEH-, Evaluation Type: Evaluation A (Pre-1980)) was “inactive; negative”. The mutagenic call (Species/Cell Type: Salmonella typhimurium (one or more of the five standard strains: TA98, TA100, TA1535, TA1537, and TA1538), Assay Type: Histidine reverse gene mutation, Ames assay, Assay Code: SAL-, Evaluation Type: Evaluation A (Pre-1980)) was “inactive; negative”, the mutagenic call [1] was “no conclusion” and the mutagenic call (Species/Cell Type: Salmonella typhimurium, Saccharomyces cerevisiae, Assay Type: Forward and reverse gene mutation, mitotic recombination and gene conversion, DNA effects, host-mediated assay, Assay Code: HM3-, Evaluation Type: Evaluation A (Pre-1980)) was “inactive; negative”. The mutagenic call [11] was “active; positive”.

CCC1CO1 (centres undefined) was tested, and the mutagenic call (Species/Cell Type: Escherichia coli polA (W3110 vs P3478), Assay Type: Rec-assay, DNA effects (bacterial DNA repair), Assay Code: RE2+, Evaluation Type: Evaluation A (Pre-1980)) was “active; positive”, the mutagenic call [5] was “active; positive” and the mutagenic call (Species/Cell Type: Fischer rat embryo (RLV/1706) cells, Assay Type: Cell transformation, viral enhanced, Assay Code: CTR+, Evaluation Type: Evaluation A (Pre-1980)) was “active; positive”. For the same compound, the mutagenic call (Species/Cell Type: Mouse (BALB/c-3T3) cells, Assay Type: Cell transformation, Assay Code: CTB-, Evaluation Type: Evaluation A (Pre-1980)) was “inactive; negative”, the mutagenic call (Species/Cell Type: Neurospora crassa, Assay Type: Reverse gene mutation, Assay Code: NER+, Evaluation Type: Evaluation A (Pre-1980)) was “active; positive” and the call [8] was “no conclusion”. The mutagenic call [10] was “active; positive”, the mutagenic call [12] was “active; positive” and the mutagenic call (Species/Cell Type: Syrian hamster embryo (SHE) cells, Assay Type: Cell transformation, clonal assay, Assay Code: CTC+, Evaluation Type: Evaluation A (Pre-1980)) was “active; positive”.

For CCCCN(CC(O)CC(=O)O)N=O (centres undefined), the mutagenic call [1] was “no conclusion”.

In the case of O=NN(CCCl)C(=O)NCCCCCCNC(=O)N(CCCl)N=O, the mutagenic call [2] was “active; positive” and the mutagenic call [9] was “active; positive”.

With CO[C@@H]1C[C@](C)(O)Cc2cc3c(c(O)c21)C(=O)c1c(O)cc2c(c1C3=O)O[C@@H]1O[C@@]2(C)[C@H](O)[C@@H](N(C)C)[C@@H]1O the mutagenic call [13] was “active; positive” and the mutagenic call [14] was “active; positive”.

CC(=O)Nc1ccc(NC(C)=O)c2c1C(=O)c1ccccc1C2=O was tested, and the mutagenic call [3] was “active; positive”.

CC1=C(/C=C/C(C)=C/C=C/C(C)=C/C(=O)O)C(C)(C)CCC1 was tested, and the mutagenic call (Species/Cell Type: Human, Assay Type: Sister-chromatid exchange (SCE) in vitro, Assay Code: SC1+D, Dose Response: With dose response, Evaluation Type: Evaluation A (Pre-1980)) was “active; positive” and the mutagenic call (Species/Cell Type: Nonhuman, Assay Type: Sister-chromatid exchange (SCE) in vitro, Assay Code: SC2T, Evaluation Type: Evaluation B (Post-1980)) was “no conclusion”.

For CC(=O)OCN(Cc1ccccc1)N=O, the mutagenic call [1] was “no conclusion”.

For CCOc1nc2c(c(=O)n(C)c(=O)n2C)n1C, the mutagenic call (Species/Cell Type: Allium cepa, Assay Type: Chromosome aberrations, Assay Code: ALC+D, Dose Response: With dose response, Evaluation Type: Evaluation A (Pre-1980)) was “active; positive”, the mutagenic call [15] was “active; positive” and the mutagenic call [6] was “active; positive”. The mutagenic call (Species/Cell Type: Nonhuman, Assay Type: Chromosome aberrations in vitro, Assay Code: CY&+, Evaluation Type: Evaluation A (Pre-1980)) was “active; positive”, the mutagenic call (Species/Cell Type: Nonhuman, Assay Type: Sister-chromatid exchange (SCE) in vitro, Assay Code: SC2-, Evaluation Type: Evaluation B (Post-1980)) was “inactive; negative” and the mutagenic call (Species/Cell Type: Nonhuman, Assay Type: Sister-chromatid exchange (SCE) in vitro, Assay Code: SC2T, Evaluation Type: Evaluation A (Pre-1980)) was “no conclusion”. For the same compound, the mutagenic call [11] was “active; positive”.

CCCCI was tested, and the mutagenic call (Species/Cell Type: Escherichia coli polA (W3119 vs P3478), Assay Type: Rec-assay, DNA effects (bacterial DNA repair), Assay Code: RE1T, Evaluation Type: Evaluation A (Pre-1980)) was “no conclusion”.

With CCNCCNc1ccc(CO)c2sc3cc(Cl)ccc3c(=O)c12 the mutagenic call (Species/Cell Type: Mouse lymphoma (L5178Y) cells, Assay Type: Forward gene mutation at the thymidine kinase (TK) locus, chromosome aberrations, Assay Code: L51+, Evaluation Type: Evaluation A (Pre-1980)) was “active; positive”.

In the case of CCCCN(N=O)/C(N)=N/[N+](=O)[O-], the mutagenic call [15] was “active; positive” and the mutagenic call [12] was “active; positive”.

With O=C1Nc2ccc([N+](=O)[O-])cc2C1=O the mutagenic call [12] was “active; positive”.

For O=c1[nH]c(=O)n([C@H]2C[C@H](O)[C@@H](CO)O2)cc1/C=C/Cl, the mutagenic call [7] was “active; positive”.

OCc1c2ccccc2c(CO)c2c1ccc1ccccc12 was tested, and the mutagenic call (Species/Cell Type: Chinese hamster lung (V79) cells, Assay Type: Forward gene mutation at the HPRT or ouabain locus, Assay Code: V79-*, Activation: With metabolic activation, Evaluation Type: Evaluation A (Pre-1980)) was “inactive; negative” and the call [8] was “no conclusion”.

For O=[As]O, the mutagenic call [4] was “active; positive”, the mutagenic call (Species/Cell Type: Chinese hamster ovary (CHO) cells, Assay Type: Forward gene mutation at the HPRT locus, Assay Code: CHOT, Evaluation Type: Evaluation B (Post-1980)) was “no conclusion” and the mutagenic call (Species/Cell Type: Human lymphocytes, Assay Type: Sister-chromatid exchange (SCE) in vitro, Assay Code: SCL+D*, Activation: With metabolic activation, Dose Response: With dose response, Evaluation Type: Evaluation B (Post-1980)) was “active; positive”. For the same compound, the mutagenic call (Species/Cell Type: Human, Assay Type: Sister-chromatid exchange (SCE) in vitro, Assay Code: SC1+D*, Activation: With metabolic activation, Dose Response: With dose response, Evaluation Type: Evaluation B (Post-1980)) was “active; positive”, the mutagenic call [13] was “active; positive” and the mutagenic call [14] was “active; positive”. For the same compound, the mutagenic call (Species/Cell Type: Syrian hamster embryo (SA7/SHE) cells, Assay Type: Cell transformation, viral enhanced, Assay Code: CT7+, Evaluation Type: Evaluation A (Pre-1980)) was “active; positive”.
